Data as given in patent publication US6369069B1 (Aventis Pharma Deutschland GmbH, priority 1998, dated 2002).

These molecules were tested on Na^+-dependent Cl^−/HCO3^− exchanger (NCBE) (assay: Inhibition of the Na+-dependent Cl−/HCO3− exchanger (NCBE) in human endothelial cells (pHi recovery, BCECF fluorescence, FLIPR)). Settings: 10 μM.
Type: cell-based
How it was run: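 Fluorescence rise (FLIPR, 2 min, 35 °C) tracked pHi recovery in acid-loaded, BCECF-loaded ECV-304 cells after adding Na+- and HCO3−-containing buffer with 50 μM HOE 642 and graded compound doses. Inhibition was calculated against full-recovery and bicarbonate-free no-recovery controls.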

SMILES | Residual activity % of the NCBE at 10 μM
COc1ccc(CCN(Cc2ccc(-c3ccccc3S(=O)(=O)NC#N)cc2)C(=O)c2ccccc2F)cc1 [Example 100] | 94.1%
N#CNS(=O)(=O)c1ccccc1-c1ccc(CN(Cc2ccc(Cl)cc2Cl)C(=O)Cc2ccccc2Br)cc1 [Example 276] | 36.8%
N#CNS(=O)(=O)c1ccccc1-c1ccc(CN(Cc2cccs2)C(=O)C(=O)c2ccco2)cc1 [Example 254] | 64.5%
N#CNS(=O)(=O)c1ccccc1-c1ccc(CN(Cc2cccc(Cl)c2)C(=O)CCS(=O)(=O)c2ccccc2)cc1 [Example 281] | 68.6%
N#CNS(=O)(=O)c1ccccc1-c1ccc(CN(C(=O)Cc2cccs2)C(C(=O)O)c2ccccc2)cc1 (centres unmarked) [Example 282] | 89.0%
N#CNS(=O)(=O)c1ccccc1-c1ccc(CN(Cc2cccc(Cl)c2Cl)C(=O)CC2CCCCC2)cc1 [Example 349] | 50.4%
CC(C)CN(Cc1ccc(-c2ccccc2S(=O)(=O)NC#N)cc1)C(=O)c1cc2ccccc2s1 [Example 72] | 86.3%
N#CNS(=O)(=O)c1ccccc1-c1ccc(CN(Cc2ccccc2Cl)C(=O)COc2ccccc2)cc1 [Example 167] | 47.5%
N#CNS(=O)(=O)c1ccccc1-c1ccc(CN(Cc2ccccc2)C(=O)CCCCc2ccccc2)cc1 [Example 244] | 60.4%
N#CNS(=O)(=O)c1ccccc1-c1ccc(CN(Cc2ccccn2)C(=O)C(=O)c2cccs2)cc1 [Example 196] | 62.8%
CN(Cc1ccc(-c2ccccc2S(=O)(=O)NC#N)cc1)C(=O)Cc1cccs1 [Example 239] | 56.3%
N#CNS(=O)(=O)c1ccccc1-c1ccc(CN(Cc2cccc(Cl)c2Cl)C(=O)CC2CCCC2)cc1 [Example 359] | 37.9%
N#CNS(=O)(=O)c1ccccc1-c1ccc(CN(CCCc2ccccc2)C(=O)CCCc2cccs2)cc1 [Example 186] | 9.7%
N#CNS(=O)(=O)c1ccccc1-c1ccc(CN(Cc2ccc(Cl)cc2)C(=O)c2ccccc2Cl)cc1 [Example 58] | 59.4%
CCN(Cc1ccc(-c2ccccc2S(=O)(=O)NC#N)cc1)C(=O)Cc1cccs1 [Example 240] | 58.0%
C[C@H](c1ccccc1)N(Cc1ccc(-c2ccccc2S(=O)(=O)NC#N)cc1)C(=O)C(c1ccccc1)c1ccccc1 [Example 118] | 95.3%
N#CNS(=O)(=O)c1ccccc1-c1ccc(CN(Cc2nc3ccccc3[nH]2)C(=O)CCCCc2cccs2)cc1 [Example 224] | 79.8%
COC(=O)C(c1ccccc1)N(Cc1ccc(-c2ccccc2S(=O)(=O)NC#N)cc1)C(=O)Cc1ccccc1Br (centres unmarked) [Example 274] | 73.6%
CCN(Cc1ccc(-c2ccccc2S(=O)(=O)NC#N)cc1)C(=O)Cc1c[nH]c2ccccc12 [Example 207] | 31.0%
CC(C)(C)CC(=O)N(Cc1ccc(-c2ccccc2S(=O)(=O)NC#N)cc1)Cc1ccco1 [Example 158] | 57.9%
N#CNS(=O)(=O)c1ccccc1-c1ccc(CN(Cc2ccccc2)C(=O)c2ccccc2)cc1 [Example 61] | 56.6%
COCCC(=O)N(Cc1ccc(-c2ccccc2S(=O)(=O)NC#N)cc1)C1CCc2ccccc21 (centres unmarked) [Example 324] | 60.5%
N#CNS(=O)(=O)c1ccccc1-c1ccc(CN(Cc2nc3ccccc3[nH]2)C(=O)Cc2c[nH]c3ccccc23)cc1 [Example 208] | 50.7%
COC(=O)C(c1ccccc1)N(Cc1ccc(-c2ccccc2S(=O)(=O)NC#N)cc1)C(=O)Cc1cccs1 (centres unmarked) [Example 268] | 79.3%

SMILES | Residual activity % of the NCBE at 10 μM
N#CNS(=O)(=O)c1ccccc1-c1ccc(CN(Cc2cccc(-c3ccccc3)c2)C(=O)Cc2cccs2)cc1 [Example 317] | 14.5%
CN(C)c1ccc(CN(Cc2ccc(-c3ccccc3S(=O)(=O)NC#N)cc2)C(=O)Cc2cccs2)cc1 [Example 140] | 54.2%
COCCN(Cc1ccc(-c2ccccc2S(=O)(=O)NC#N)cc1)C(=O)Cc1csc2ccccc12 [Example 211] | 50.6%
COc1ccc(CN(Cc2ccc(-c3ccccc3S(=O)(=O)NC#N)cc2)C(=O)CCC2CCCCC2)cc1 [Example 9] | 86.6%
COC(=O)C(c1ccccc1)N(Cc1ccc(-c2ccccc2S(=O)(=O)NC#N)cc1)C(=O)CCc1cccs1 (centres unmarked) [Example 286] | 68.8%
CC(C)(C)OC(=O)C(c1ccccc1)N(Cc1ccc(-c2ccccc2S(=O)(=O)NC#N)cc1)C(=O)Cc1cccs1 (centres unmarked) [Example 269] | 94.4%
N#CNS(=O)(=O)c1ccccc1-c1ccc(CN(Cc2ccccc2Cl)C(=O)c2cccs2)cc1 [Example 81] | 36.0%
CC(C)NC(=O)N(Cc1ccccc1)Cc1ccc(-c2ccccc2S(=O)(=O)NC#N)cc1 [Example 298] | 74.7%
N#CNS(=O)(=O)c1ccccc1-c1ccc(CN(CC2CCCCC2)C(=O)CCC2CCCCC2)cc1 [Example 267] | 57.9%
CC(=O)N(Cc1ccc(Cl)cc1)Cc1ccc(-c2ccccc2S(=O)(=O)NC#N)cc1 [Example 62] | 94.5%
N#CNS(=O)(=O)c1ccccc1-c1ccc(CN(Cc2ccc3c(c2)OCO3)C(=O)c2cccs2)cc1 [Example 87] | 54.8%
CCCC(=O)N(Cc1ccc(-c2ccccc2S(=O)(=O)NC#N)cc1)C1CCCCC1 [Example 6] | 84.5%
COc1ccccc1C(=O)N(CC=C(C)CCC=C(C)C)Cc1ccc(-c2ccccc2S(=O)(=O)NC#N)cc1 [Example 333] | 22.3%
N#CNS(=O)(=O)c1ccccc1-c1ccc(CN(C(=O)CCOc2ccccc2)C2CCc3ccccc32)cc1 (centres unmarked) [Example 344] | 52.2%
N#CNS(=O)(=O)c1ccccc1-c1ccc(CN(Cc2ccc3c(c2)OCO3)C(=O)Cc2ccccc2)cc1 [Example 127] | 61.7%
COc1ccc(CCN(Cc2ccc(-c3ccccc3S(=O)(=O)NC#N)cc2)C(=O)Cc2ccccc2)cc1 [Example 130] | 77.8%
COc1cc(CN(Cc2ccc(-c3ccccc3S(=O)(=O)NC#N)cc2)C(=O)Cc2cccs2)cc(OC)c1OC [Example 145] | 39.6%
C=CCOC(=O)N(Cc1ccc(OC)cc1)Cc1ccc(-c2ccccc2S(=O)(=O)NC#N)cc1 [Example 45] | 80.1%
CC(=O)N(CCOc1ccccc1)Cc1ccc(-c2ccccc2S(=O)(=O)NC#N)cc1 [Example 180] | 70.9%
COc1ccccc1CN(Cc1ccc(-c2ccccc2S(=O)(=O)NC#N)cc1)C(=O)Cc1ccccc1 [Example 124] | 46.5%
N#CNS(=O)(=O)c1ccccc1-c1ccc(CN(Cc2cccc(Cl)c2)C(=O)Cc2ccccc2Br)cc1 [Example 278] | 31.2%
COCCN(Cc1ccc(-c2ccccc2S(=O)(=O)NC#N)cc1)C(=O)Cc1ccsc1 [Example 227] | 50.6%
CC(=O)N(Cc1ccc(F)cc1)Cc1ccc(-c2ccccc2S(=O)(=O)NC#N)cc1 [Example 185] | 85.0%
N#CNS(=O)(=O)c1ccccc1-c1ccc(CN(Cc2cccs2)C(=O)Cc2cccs2)cc1 [Example 250] | 41.1%

Same assay, conditions: 10 μM compound; human endothelial cells (ECV-304); related to 100% and 0% pHi recovery controls

SMILES | Residual activity of the NCBE at 10 μM
N#CNS(=O)(=O)c1ccccc1-c1ccc(CN(Cc2ccccc2)S(=O)(=O)c2cccs2)c(Cl)c1 [Example 556, 4′-{[Benzyl-(2-thiophen-2-sulfonyl)amino]methyl}-3′-chlorobiphenyl-2-sulfonylcyanamide] | 0%
CS(=O)(=O)c1cc(-c2ccccc2S(=O)(=O)NC#N)ccc1CN(Cc1ccccc1)C(=O)Cc1cccs1 [Example 555, 4′-{[Benzyl-(2-thiophen-2-ylacetyl)amino]methyl}-3′-methylsulfonyl-biphenyl-2-sulfonylcyanamide] | 31%
CS(=O)(=O)c1cc(-c2ccccc2S(=O)(=O)NC#N)ccc1CN(Cc1ccccc1)S(=O)(=O)c1cccs1 [Example 557, 4′-{[Benzyl(thiophene-2-sulfonyl)amino]methyl}-3′-methylsulfonylbiphenyl-2-sulfonylcyanamide] | 14%

Same assay, conditions: compound at 10 μM; R(3) to R(7) hydrogen series

SMILES | Residual activity % of the NCBE at 10 μM
Cc1ccc(C(C)C(=O)N(Cc2ccccc2)Cc2ccc(-c3ccccc3S(=O)(=O)NC#N)cc2)s1 (centres unmarked) [Example 481] | 62.6%
N#CNS(=O)(=O)c1ccccc1-c1ccc(CN(CC2CC(C(=O)N3CCCC3)=NO2)C(=O)Cc2cccs2)cc1 (centres unmarked) [Example 396] | 53.2%
N#CNS(=O)(=O)c1ccccc1-c1ccc(CN(Cc2ccccc2)C(=O)Cc2ccco2)cc1 [Example 389] | 51.5%

Same assay, conditions: compound at 10 μM; sub-table with R7 substituent

SMILES | Residual activity % of the NCBE at 10 μM
Cc1ccc(-c2ccc(CN(Cc3cccs3)C(=O)Cc3ccsc3)cc2)c(S(=O)(=O)NC#N)c1 [Example 541] | 52.8%
Cc1ccc(-c2ccc(CN(Cc3cccc(Cl)c3Cl)C(=O)Cc3ccsc3)cc2)c(S(=O)(=O)NC#N)c1 [Example 544] | 82.2%
Cc1ccc(-c2ccc(CN(Cc3cccc4ccccc34)C(=O)Cc3ccc(Cl)cc3)cc2)c(S(=O)(=O)NC#N)c1 [Example 530] | 89.8%
Cc1ccc(-c2ccc(CN(Cc3ccc4ccccc4c3)C(=O)C(C)c3cccs3)cc2)c(S(=O)(=O)NC#N)c1 (centres unmarked) [Example 523] | 92.3%
Cc1ccc(-c2ccc(CN(Cc3ccccc3F)C(=O)CC3CCCCC3)cc2)c(S(=O)(=O)NC#N)c1 [Example 551] | 82.6%
